Results: PMC7187627 (Antimicrobial Agents and Chemotherapy, 2019)
≈ marks a conversion by molar mass, not a printed value. Entries after “also recorded” stand apart in the source; their conditions may differ. Where two headings read alike, the source gives them in different places.

Assays:
[1] = Plasma pharmacokinetics, multiple-ascending-dose phase 1 study; type: in vivo, human; conditions: for RAUC (accumulation ratio for AUC) / RCmax (accumulation ratio for Cmax): day 10 vs day 1; for half-life / Cmax / Vd/F / Tmax / AUC(0-t) / AUC: human, plasma; for Vd/F: read-out: Vz/F,ss
Procedure: This study was conducted in full accordance with the Declaration of Helsinki and good clinical practices (GCP) at Quintiles Phase One Services in Overland Park, KS. Subjects were randomized in a 4:1 fashion (8 active:2 placebo) in each cohort to receive 200 mg, 400 mg, or 600 mg of CRS3123 or matching placebo every 12 h for 10 days (https://clinicaltrials.gov/ct2/show/NCT02106338). Subjects fasted 1 h before and 2 h after administration of the study product with a minimum of 8 oz. (240 ml) of water. Water and noncaffeinated drinks (except grapefruit juice) during the study were not restricted. Informed consent was obtained before any study-related procedures and clinical evaluations were performed. All 30 randomized subjects completed the study; 24 subjects received CRS3123 and 6 subjects received placebo. There were no premature withdrawals or discontinuations.
After a screening period of up to 35 days, eligible subjects were admitted to the study center for baseline evaluations on day −1. On the morning of day 1, eligible subjects were randomized to receive either the study drug or placebo orally every 12 h through day 10. Subjects remained inpatient at the study center until discharge on day 12. During the inpatient period, subjects were monitored for safety and pharmacokinetics (PK). Subjects were followed for 2 additional outpatient visits at the study center, on days 18 ± 2 and 29 ± 2.
PK method development, validation, and sample testing for plasma, feces, and urine were performed at KCAS, LLC (Shawnee, KS). Plasma, urine, and fecal concentrations of CRS3123 were determined by means of validated, sensitive, and specific high-performance liquid chromatography/tandem mass spectrometric (HPLC-MS/MS) assays. The lower limits of quantification of CRS3123 in plasma, feces, and urine were 10.0 ng/ml, 60.0 ng/g, and 100.0 ng/ml, respectively. The validated urine PK assay measured total free CSR3123. Since the majority of urinary CRS3123 was excreted as glucuronide conjugates ([32]), an enzymatic cleavage step using glucuronidase was added to the process to convert the glucuronide conjugates to free CRS3123 for the urine analysis.
The PK population consisted of all subjects who received active study drug (CRS3123) and had at least one measured CRS3123 concentration at a scheduled PK time point after the start of study drug administration.
Pharmacokinetic parameters for plasma were derived using noncompartmental methods with Phoenix WinNonlin version 6.4 (Pharsight Corporation, Certara L.P., Princeton, NJ). PK parameters for urine and feces were derived using SAS version 9.4 (SAS Institute, Inc., Cary, NC). All statistical calculations and reporting were performed using SAS version 9.4. Graphics were prepared with SAS version 9.4 or SigmaPlot 12.5 (Systat Software, Inc., San Jose, CA).
(i) Plasma PK. Plasma concentrations of CRS3123 throughout the 12-h dosing interval on PK days (day 1 and day 10) were summarized using descriptive statistics for each treatment.
One-way analysis of variance (ANOVA) models were used to assess any differences in appropriate PK parameters between adjacent dose levels following a single dose (day 1) and multiple doses (day 10). An ANOVA model on the log-transformed PK parameters (AUC0–12 and Cmax on day 1; AUC0–tau and Cmax on day 10) with fixed effect for treatment was performed separately for the single-dose analysis and multiple-dose analysis. From these models, the least-squares (LS) means together with 95% confidence intervals (Cis) for each dose and the LS means with corresponding 90% CIs for all adjacent dose pairs were calculated. Transformed back from the logarithmic scale, geometric LS means with corresponding 90% CIs were provided for each dose and adjacent dose ratios following both single and multiple dosing. PK accumulation was presented using descriptive statistics, and achievement of steady state was assessed graphically. […]

C. difficile = tested on: C. difficile; set-up: method as in PMID 19258353; conditions: cited from earlier work
[2] = 200 mg Q12h, day 10, geometric mean
[3] = 400 mg Q12h, day 10, geometric mean
[4] = 600 mg Q12h, day 10, geometric mean

O=c1cc(NCCCN[C@@H]2CCOc3c(Br)cc(Br)cc32)[nH]c2ccsc12 [CRS3123]
CL/F,ss [1, 2]: 80.2 L/h
Plasma Cmin,ss [1, 2]: 85.2 ng/mL
CL/F,ss ([1]; 200 mg Q12h, day 10, median): 82.0 L/h
Plasma Cmin,ss ([1]; 200 mg Q12h, day 10, median): 76.2 ng/mL
RAUC (accumulation ratio for AUC) ([1]; 200 mg Q12h, geometric mean): 1.61
RCmax (accumulation ratio for Cmax) ([1]; 200 mg Q12h, geometric mean): 1.34
RAUC (accumulation ratio for AUC) ([1]; 200 mg Q12h, median): 1.54
RCmax (accumulation ratio for Cmax) ([1]; 200 mg Q12h, median): 1.11
Plasma t1/2 ([1]; 200 mg Q12h oral, day 1, median (minimum, maximum)): 3.0 (2.7, 3.7) h
Plasma t1/2,ss ([1]; 200 mg Q12h oral, day 10, median (minimum, maximum)): 4.6 (4.1, 7.0) h
CL/F,ss [1, 3]: 125 L/h
Plasma Cmin,ss [1, 3]: 112 ng/mL
CL/F,ss ([1]; 400 mg Q12h, day 10, median): 121 L/h
Plasma Cmin,ss ([1]; 400 mg Q12h, day 10, median): 122 ng/mL
RAUC (accumulation ratio for AUC) ([1]; 400 mg Q12h, geometric mean): 1.37
RCmax (accumulation ratio for Cmax) ([1]; 400 mg Q12h, geometric mean): 1.22
RAUC (accumulation ratio for AUC) ([1]; 400 mg Q12h, median): 1.21
RCmax (accumulation ratio for Cmax) ([1]; 400 mg Q12h, median): 1.19
Plasma t1/2 ([1]; 400 mg Q12h oral, day 1, median (minimum, maximum)): 3.6 (2.9, 4.3) h
Plasma t1/2,ss ([1]; 400 mg Q12h oral, day 10, median (minimum, maximum)): 5.0 (3.4, 7.7) h
CL/F,ss [1, 4]: 149 L/h
Plasma Cmin,ss [1, 4]: 160 ng/mL
CL/F,ss ([1]; 600 mg Q12h, day 10, median): 162 L/h
Plasma Cmin,ss ([1]; 600 mg Q12h, day 10, median): 161 ng/mL
RAUC (accumulation ratio for AUC) ([1]; 600 mg Q12h, geometric mean): 1.13
RCmax (accumulation ratio for Cmax) ([1]; 600 mg Q12h, geometric mean): 1.12
RAUC (accumulation ratio for AUC) ([1]; 600 mg Q12h, median): 1.15
RCmax (accumulation ratio for Cmax) ([1]; 600 mg Q12h, median): 1.05
Plasma t1/2 ([1]; 600 mg Q12h oral, day 1, median (minimum, maximum)): 2.9 (2.6, 4.0) h
systemic uptake after oral dosing ([1]; 200 to 600 mg twice daily): limited but detectable systemic uptake
dose proportionality of plasma exposure ([1]; 200 to 600 mg, day 1 and day 10): less than dose proportional
accumulation in plasma following multiple twice-daily dosing ([1]; 10 days twice daily, trough concentration profiles): minimal accumulation; also recorded: essentially no accumulation
power model slope (β) estimates for AUC and Cmax ([1]; day 1 and day 10, 200 to 600 mg): well below one
increase of geometric mean AUC0–12 with a 3-fold increase in dose ([1]; first dose, 200 mg to 600 mg): approximately 2.3 fold
increase of geometric mean Cmax with a 3-fold increase in dose ([1]; first dose, 200 mg to 600 mg): ~1.9 fold
half-life ([1]; oral, 200 mg, 200 mg Q12h, day 1, geometric mean, read-out: Plasma t1/2 (converted)): 3.01 h
Cmax ([1]; oral, 200 mg, 200 mg Q12h, day 1, median, read-out: Plasma Cmax): 342 ng/mL
half-life ([1]; oral, 200 mg, 200 mg Q12h, day 10, geometric mean, read-out: Plasma t1/2,ss (converted)): 4.71 h
Vd/F ([1]; oral, 200 mg, 200 mg Q12h, day 10, geometric mean): 591 L
Cmax ([1]; oral, 200 mg, 200 mg Q12h, day 10, median, read-out: Plasma Cmax,ss): 492 ng/mL
Vd/F ([1]; oral, 200 mg, 200 mg Q12h, day 10, median): 578 L
half-life ([1]; oral, 400 mg, 400 mg Q12h, day 1, geometric mean, read-out: Plasma t1/2 (converted)): 3.53 h
Cmax ([1]; oral, 400 mg, 400 mg Q12h, day 1, median, read-out: Plasma Cmax): 504 ng/mL
half-life ([1]; oral, 400 mg, 400 mg Q12h, day 10, geometric mean, read-out: Plasma t1/2,ss (converted)): 5.19 h
Vd/F ([1]; oral, 400 mg, 400 mg Q12h, day 10, geometric mean): 937 L
Cmax ([1]; oral, 400 mg, 400 mg Q12h, day 10, median, read-out: Plasma Cmax,ss): 603 ng/mL
Vd/F ([1]; oral, 400 mg, 400 mg Q12h, day 10, median): 917 L
half-life ([1]; oral, 600 mg, 600 mg Q12h, day 1, geometric mean, read-out: Plasma t1/2 (converted)): 3.04 h
Cmax ([1]; oral, 600 mg, 600 mg Q12h, day 1, median, read-out: Plasma Cmax): 642 ng/mL
half-life ([1]; oral, 600 mg, 600 mg Q12h, day 10, geometric mean, read-out: Plasma t1/2,ss (converted)): 6.32 h
Vd/F ([1]; oral, 600 mg, 600 mg Q12h, day 10, geometric mean): 1400 L
Cmax ([1]; oral, 600 mg, 600 mg Q12h, day 10, median, read-out: Plasma Cmax,ss): 674 ng/mL
Vd/F ([1]; oral, 600 mg, 600 mg Q12h, day 10, median): 1410 L
Tmax ([1]; oral, 600 mg, after first dose, day 1, range across the 3 dose groups (200, 400, 600 mg), read-out: median time to maximum concentration (Tmax)): 7200 to 10800 s
half-life ([1]; oral, after 10 days twice-daily, range across the three dose groups, read-out: geometric mean t1/2,ss): 5 to 6 h
Tmax ([1]; oral, after 10 days twice-daily, range across the three dose groups, read-out: median Tmax at steady state (Tmax,ss)): 3600 to 7200 s
half-life ([1]; oral, after first dose, day 1, range across the 3 dose groups, read-out: geometric mean half-life (t1/2)): 3 to 4 h
AUC(0-t) ([1]; oral, 200 mg Q12h, day 1, median, read-out: Plasma AUC(0-12)): 1230 ng·h/mL
AUC ([1]; oral, 200 mg Q12h, day 10, median, read-out: Plasma AUC(0-tau)): 2470 ng·h/mL
AUC(0-t) ([1]; oral, 400 mg Q12h, day 1, median, read-out: Plasma AUC(0-12)): 2510 ng·h/mL
AUC ([1]; oral, 400 mg Q12h, day 10, median, read-out: Plasma AUC(0-tau)): 3310 ng·h/mL
AUC(0-t) ([1]; oral, 600 mg Q12h, day 1, median, read-out: Plasma AUC(0-12)): 3630 ng·h/mL
AUC ([1]; oral, 600 mg Q12h, day 10, median, read-out: Plasma AUC(0-tau)): 3740 ng·h/mL
Cmax ([1]; po, 200 mg, 200 mg Q12h oral, day 1, geometric mean (%CV), read-out: Plasma Cmax): 352 ng/mL
Tmax ([1]; po, 200 mg, 200 mg Q12h oral, day 1, median (minimum, maximum), read-out: Plasma Tmax): 7200 s
half-life ([1]; po, 200 mg, 200 mg Q12h oral, day 1, median (minimum, maximum), read-out: Plasma t1/2 (converted)): 2.96 h
Cmax ([1]; po, 200 mg, 200 mg Q12h oral, day 10, geometric mean (%CV), read-out: Plasma Cmax,ss): 470 ng/mL
Tmax ([1]; po, 200 mg, 200 mg Q12h oral, day 10, median (minimum, maximum), read-out: Plasma Tmax,ss): 5400 s
half-life ([1]; po, 200 mg, 200 mg Q12h oral, day 10, median (minimum, maximum), read-out: Plasma t1/2,ss (converted)): 4.59 h
Cmax ([1]; po, 400 mg, 400 mg Q12h oral, day 1, geometric mean (%CV), read-out: Plasma Cmax): 507 ng/mL
Tmax ([1]; po, 400 mg, 400 mg Q12h oral, day 1, median (minimum, maximum), read-out: Plasma Tmax): 10800 s
half-life ([1]; po, 400 mg, 400 mg Q12h oral, day 1, median (minimum, maximum), read-out: Plasma t1/2 (converted)): 3.61 h
Cmax ([1]; po, 400 mg, 400 mg Q12h oral, day 10, geometric mean (%CV), read-out: Plasma Cmax,ss): 615 ng/mL
Tmax ([1]; po, 400 mg, 400 mg Q12h oral, day 10, median (minimum, maximum), read-out: Plasma Tmax,ss): 7200 s
half-life ([1]; po, 400 mg, 400 mg Q12h oral, day 10, median (minimum, maximum), read-out: Plasma t1/2,ss (converted)): 5.01 h
Cmax ([1]; po, 600 mg, 600 mg Q12h oral, day 1, geometric mean (%CV), read-out: Plasma Cmax): 654 ng/mL
Tmax ([1]; po, 600 mg, 600 mg Q12h oral, day 1, median (minimum, maximum), read-out: Plasma Tmax): 7200 s
half-life ([1]; po, 600 mg, 600 mg Q12h oral, day 1, median (minimum, maximum), read-out: Plasma t1/2 (converted)): 2.85 h
Cmax ([1]; po, 600 mg, 600 mg Q12h oral, day 10, geometric mean (%CV), read-out: Plasma Cmax,ss): 731 ng/mL
Tmax ([1]; po, 600 mg, 600 mg Q12h oral, day 10, median (minimum, maximum), read-out: Plasma Tmax,ss): 3600 s
half-life ([1]; po, 600 mg, 600 mg Q12h oral, day 10, median (minimum, maximum), read-out: Plasma t1/2,ss (converted)): 6.1 h
AUC(0-t) ([1]; 200 mg Q12h oral, day 1, geometric mean (%CV), read-out: Plasma AUC (AUC0–12)): 1550 ng·h/mL
AUC ([1]; 200 mg Q12h oral, day 10, geometric mean (%CV), read-out: Plasma AUC (AUC0–tau)): 2500 ng·h/mL
AUC(0-t) ([1]; 400 mg Q12h oral, day 1, geometric mean (%CV), read-out: Plasma AUC (AUC0–12)): 2340 ng·h/mL
AUC ([1]; 400 mg Q12h oral, day 10, geometric mean (%CV), read-out: Plasma AUC (AUC0–tau)): 3200 ng·h/mL
AUC(0-t) ([1]; 600 mg Q12h oral, day 1, geometric mean (%CV), read-out: Plasma AUC (AUC0–12)): 3560 ng·h/mL
AUC ([1]; 600 mg Q12h oral, day 10, geometric mean (%CV), read-out: Plasma AUC (AUC0–tau)): 4030 ng·h/mL
MIC90 (C. difficile): 1 µg/mL (≈ 1.95 µM)
